Data on 5 compounds can be found in patent US20170190671A1, “BIS(ARYL)CATECHOL DERIVATIVES AS HERBICIDES” (E I DU PONT DE NEMOURS AND COMPANY, priority 2014, published 2017).

Data set [1] has as its system Italian ryegrass (Lolium multiflorum). The data set is described as follows: Test C postemergence. The format is in vivo. The note with it: Lolium multiflorum, post-emergence, 336 h, Postemergence, scale 0 to 100, read-out: Plant response rating, Ryegrass, Italian. The essentials:
(§1)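 Greenhouse test; preemergence to seeds in loam/sand soil, or postemergence spray to 2-18 cm, 1- to 4-leaf plants in peat/vermiculite medium; compound in non-phytotoxic solvent plus surfactant. Visual rating vs controls at 13-15 d, 0 = no effect, 100 = complete control.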

In data set [2] the test system is barnyardgrass (Echinochloa crus-galli). The data set is described as follows: Test C postemergence. The format is in vivo. The note with it: Echinochloa crus-galli, post-emergence, Postemergence, scale 0 to 100, read-out: Plant response rating, Barnyardgrass. The essentials:
as §1

The next data set has as its system corn (Zea mays). As to the kind of experiment: Test C postemergence. The format is in vivo. The following applies: Zea mays, post-emergence, 336 h, Postemergence, scale 0 to 100. The essentials: as §1
The subject of data set [3] is galium (catchweed bedstraw, Galium aparine). The data set is described as follows: Test C postemergence. The format is in vivo. The following applies: Galium, post-emergence, 336 h, Postemergence, scale 0 to 100, read-out: Plant response rating, Galium. The essentials:
as §1

For data set [4], the system named is johnsongrass (Sorghum halepense). As to the kind of experiment: Test C postemergence. The format is in vivo. The note with it: Sorghum halepense, post-emergence, 336 h, Postemergence, scale 0 to 100, read-out: Plant response rating, Johnsongrass. The essentials:
as §1

A further data set deals with kochia (Kochia scoparia). The data set is described as follows: Test C postemergence. The format is in vivo. The note with it: Bassia scoparia, post-emergence, Postemergence, scale 0 to 100, read-out: Plant response rating, Kochia. The procedure, abridged: as §1
For data set [5], the system named is large (Lg) crabgrass (Digitaria sanguinalis). The data set is described as follows: Test C postemergence. The format is in vivo. The following applies: Digitaria sanguinalis, post-emergence, 336 h, Postemergence, scale 0 to 100, read-out: Plant response rating, Crabgrass, Large. The procedure, abridged:
as §1

Data set [6] relates to morningglory (Ipomoea coccinea). As to the kind of experiment: Test C postemergence. The format is in vivo. The following applies: Ipomoea, post-emergence, 336 h, Postemergence, scale 0 to 100, read-out: Plant response rating, Morningglory. The procedure, abridged:
as §1

Data set [7] has as its system oilseed rape (Brassica napus). The data set is described as follows: Test C postemergence. The following applies: Brassica napus, post-emergence, Postemergence, scale 0 to 100, read-out: Plant response rating, Oilseed Rape. The class given is in vivo. The procedure, abridged: as §1
Data set [8] deals with pigweed (Amaranthus retroflexus). As to the kind of experiment: Test C postemergence. The format is in vivo. The note with it: Amaranthus retroflexus, post-emergence, 336 h, Postemergence, scale 0 to 100, read-out: Plant response rating, Pigweed. The procedure, abridged: as §1
The subject of data set [9] is ragweed (common ragweed, Ambrosia elatior). The data set is described as follows: Test C postemergence. The format is in vivo. The note with it: Ambrosia artemisiifolia, post-emergence, 336 h, Postemergence, scale 0 to 100, read-out: Plant response rating, Ragweed. The procedure, abridged: as §1
In the next data set the test system is soybean (Glycine max). The data set is described as follows: Test C postemergence. The format is in vivo. The note with it: Glycine max, post-emergence, Postemergence, scale 0 to 100, read-out: Plant response rating, Soybean. The procedure, abridged:
as §1

Data set [10] has as its system waterhemp (common waterhemp, Amaranthus rudis). The data set is described as follows: Test C postemergence. The note with it: Amaranthus tuberculatus, post-emergence, Postemergence, scale 0 to 100, read-out: Plant response rating, Waterhemp. The class given is in vivo. The essentials: as §1
The test system of the next data set is wild oat (Avena fatua). As to the kind of experiment: Test C postemergence. The format is in vivo. The following applies: Avena fatua, post-emergence, Postemergence, scale 0 to 100, read-out: Plant response rating, Oat, Wild. The essentials: as §1
In data set [11] the test system is winter wheat (Triticum aestivum). The data set is described as follows: Test C postemergence. The format is in vivo. The note with it: Triticum aestivum, post-emergence, 336 h, Postemergence, scale 0 to 100, read-out: Plant response rating, Wheat. The procedure, abridged:
as §1

The melting point is the temperature, or range, at which the solid turns liquid. Consider `FC(F)c1cnc(Oc2c(Br)cccc2Oc2ncc(Cl)cn2)s1` [Compound 10, 2-[3-bromo-2-[[5-(difluoromethyl)-2-thiazolyl]oxy]phenoxy]-5-chloropyrimidine], for which the melting point was in the range of 113 to 116 °C.

`Fc1ccc(F)c(Oc2ncc(Br)cn2)c1Oc1ncc(Br)cn1` [Compound 31]: the melting point lay in the range of 166 to 170 °C.

As to `N#Cc1cccc(Oc2ncc(Cl)cn2)c1Oc1cccc(Cl)c1` [Compound 37], the melting point fell in the range of 122 to 126 °C.

Compound `N#Cc1cccc(Oc2ncc(Cl)cn2)c1Oc1ccccc1Cl` [Compound 40] gave a melting point of 120 to 123 °C.

Regarding `FC(F)c1cccc(Oc2ncc(Cl)cn2)c1Oc1ncc(Cl)cn1` [Compound 46, 2,2′-[[3-(difluoromethyl)-1,2-phenylene]bis(oxy)]bis[5-chloropyrimidine]], the pest or weed control at 31 g/ha in data set [1] (31 g ai/ha) amounted to 5%; in data set [2] (31 g ai/ha), 5%; in [3] (31 g ai/ha), 60%; in [4] (31 g ai/ha), 10%; in the data set with kochia (Kochia scoparia) (31 g ai/ha), 80%; in data set [5] (31 g ai/ha), 5%. For the same compound, the pest or weed control at 31 g/ha in data set [6] (31 g ai/ha) worked out at 80%; in data set [8] (31 g ai/ha), 70%; in [9] (31 g ai/ha), 50%; in data set [10] (31 g ai/ha) it was 50%; in the data set with wild oat (Avena fatua) (31 g ai/ha), 5%. The pest or weed control at 62 g/ha in data set [1] (62 g ai/ha) was 5%; in data set [2] (62 g ai/ha) it was 5%; in data set [3] (62 g ai/ha), 60%; in [4] (62 g ai/ha), 5%; in the data set on kochia (Kochia scoparia) (62 g ai/ha) it was 95%; in [5] (62 g ai/ha) it was 10%. The pest or weed control at 62 g/ha was 85% in [6] (62 g ai/ha); 70% in [8] (62 g ai/ha); 65% in data set [9] (62 g ai/ha); 70% in data set [10] (62 g ai/ha); 5% with wild oat (Avena fatua) (62 g ai/ha). Moreover, the pest or weed control at 125 g/ha in [1] (125 g ai/ha) came to 10%; in data set [2] (125 g ai/ha) it was 5%; in [3] (125 g ai/ha), 65%; in data set [4] (125 g ai/ha), 5%; in the data set on kochia (Kochia scoparia) (125 g ai/ha) it was 100%; in [5] (125 g ai/ha), 10%. The pest or weed control at 125 g/ha is 90% in [6] (125 g ai/ha); 85% in [8] (125 g ai/ha); 95% in data set [9] (125 g ai/ha); 5% in data set [10] (125 g ai/ha); 10% with wild oat (Avena fatua) (125 g ai/ha). Moreover, the pest or weed control at 16 g/ha in [2] (16 g ai/ha) was determined as 0%; in data set [3] (16 g ai/ha), 60%; in data set [4] (16 g ai/ha), 5%; in the data set with kochia (Kochia scoparia) (16 g ai/ha), 70%; in [5] (16 g ai/ha) it was 5%. In the data set on corn (Zea mays) (16 g ai/ha), this compound came in with a Corn plant response rating (crop injury, 0 = no effect, 100 = complete kill) at 16 g/ha of 5%. Besides, the Corn plant response rating (crop injury, 0 = no effect, 100 = complete kill) at 31 g/ha in the data set on corn (Zea mays) (31 g ai/ha) is 5%. The compound further registered a Corn plant response rating (crop injury, 0 = no effect, 100 = complete kill) at 62 g/ha with corn (Zea mays) (62 g ai/ha) of 5%. Besides, the Corn plant response rating (crop injury, 0 = no effect, 100 = complete kill) at 125 g/ha in the data set with corn (Zea mays) (125 g ai/ha) was 10%. Further, the plant injury at 31 g/ha turned out to be 30% in data set [7] (31 g ai/ha), 65% with soybean (Glycine max) (31 g ai/ha) and 5% in [11] (31 g ai/ha). The plant injury at 62 g/ha in data set [7] (62 g ai/ha) is 50%; in the data set with soybean (Glycine max) (62 g ai/ha), 75%; in [11] (62 g ai/ha), 5%. Also, the plant injury at 125 g/ha in [7] (125 g ai/ha) was 65%; in the data set with soybean (Glycine max) (125 g ai/ha) it was 80%; in [11] (125 g ai/ha), 10%.
